Test results: patent US20250100977A1, “MERCAPTOPYRIMIDINE COMPOUNDS THAT INHIBIT NONHOMOLOGOUS END JOINING AND METHODS THEREOF” (INDIAN INSTITUTE OF SCIENCE, priority 2021, published 2025)
Read-outs that look alike come from different tables or passages of the source.

How the values were obtained:
Reh = test: Cytotoxicity in Reh; type: cell-based; conditions: 48 h
Method: The compounds of the present invention were screened initially in leukemic and cervical cancer cell lines (Table 1). […] In cervical cancer cell line HeLa, IC50 was 5 and 2 μM, respectively for SCR116 and SCR132 (FIG. 5A-B).
(§1) Ligase IV specificity of the compounds of the present invention inside the cells were also determined using Ligase IV knock out (KO) cell line N114 compared to the wild type Nalm6 (Table 2, FIGS. 5C, D, E and F). […] Table 1 showing IC50 of SCR7 derivatives in cancer cell lines Nalm6 and HeLa. IC50 was calculated using GraphPad Prism software from the percentage of viable cells following treatment with the compounds at 48 h. Table 2 showing IC50 of SCR116 and SCR132 in a panel of 16 cancer cell lines.

[1] = tested on: Dalton's Lymphoma (DLA) tumor; test: Mice allograft model, Dalton's Lymphoma (DLA); type: in vivo; conditions: for Tumor burden: oral, 15 and 25 mg/kg, pilot
Method: The effect of oral dose of the compounds of the present disclosure on mice Erlich Ascites Carcinoma (EAC) and Dalton's Lymphoma (DLA) tumors were also evaluated (FIGS. 10A-F).

Molt4 = test: Cytotoxicity in Molt4; type: cell-based, human; conditions: Homo sapiens, MOLT-4; Table 2; read-out: IC50 in cancer cell lines, Molt4
Method: as §1

EAC = test: Cytotoxicity in EAC; type: cell-based, mice; conditions: Mus musculus; Table 2; read-out: IC50 in cancer cell lines, EAC
Method: as §1

cancer cells = test: Cytotoxicity in combination with radiation or chemotherapeutic agents; type: cell-based; conditions: combined with 0.5 and 1 Gy γ-radiation, or 5-FU and etoposide
Method: (§2) FIG. 7(A-F) depicts evaluation of generation of double-strand breaks inside cells treated with compounds SCR116 and SCR132 alone or in combination, A. Immunofluorescence with 53BP1 in HeLa cells treated with increasing concentration of SCR116 (2 and 5 μM) and SCR132 (1 and 2 μM). Nucleus is stained in red using propidium iodide, while green signal represents 53BP1 foci (FITC). B. Quantification of 53BP1 foci inside HeLa cells treated with SCR116 and SCR132 for 24 h, as denoted using scatter plot. Significance was calculated using ANOVA in GraphPad Prism software (ns, not significant; *p<0.05, **p<0.005, ***p<0.0001). C-D. Bar graphs showing percentage of viable cells following treatment with the compounds alone, or in presence of γ-radiation (0.5 Gy) at 24 (C) and 48 h (D). 2 and 4 μM SCR116, and 1 and 2 μM SCR132 were used. E. Bar graph showing percentage of viable cells following treatment with SCR116 (0.375 μM) or SCR132 (0.125 μM) alone, or in presence of 0.25 μM etoposide at 48 h. F. Bar graph showing percentage of viable cells following treatment with SCR116 (0.375 μM) or SCR132 (0.125 μM) alone, or in presence of 0.375 μM 5-FU at 48 h, in accordance with an implementation of the present disclosure.

SCC084 derived xenograft = test: Mouse xenograft model, SCC084; type: in vivo; conditions: oral cancer SCC084 xenograft; 8 oral doses
53BP1 foci in HeLa cells = test: 53BP1 immunofluorescence in HeLa cells; type: cell-based; conditions: alone or alongside radiation; 24 h
Method: as §2

LN229 = test: Cytotoxicity in LN229; type: cell-based; conditions: Homo sapiens, LN-229; Table 2; read-out: IC50 in cancer cell lines, LN229
Method: as §1

Ligase I = target: T1, Ligase I (Homo sapiens, UniProt P18858); test: Inhibition of end joining by purified Ligase I; type: biochemical; conditions: up to highest concentration of 1000 μM
T1 construct: made in house; host or cells: bacteria
T1 sequence (P18858 whole entry): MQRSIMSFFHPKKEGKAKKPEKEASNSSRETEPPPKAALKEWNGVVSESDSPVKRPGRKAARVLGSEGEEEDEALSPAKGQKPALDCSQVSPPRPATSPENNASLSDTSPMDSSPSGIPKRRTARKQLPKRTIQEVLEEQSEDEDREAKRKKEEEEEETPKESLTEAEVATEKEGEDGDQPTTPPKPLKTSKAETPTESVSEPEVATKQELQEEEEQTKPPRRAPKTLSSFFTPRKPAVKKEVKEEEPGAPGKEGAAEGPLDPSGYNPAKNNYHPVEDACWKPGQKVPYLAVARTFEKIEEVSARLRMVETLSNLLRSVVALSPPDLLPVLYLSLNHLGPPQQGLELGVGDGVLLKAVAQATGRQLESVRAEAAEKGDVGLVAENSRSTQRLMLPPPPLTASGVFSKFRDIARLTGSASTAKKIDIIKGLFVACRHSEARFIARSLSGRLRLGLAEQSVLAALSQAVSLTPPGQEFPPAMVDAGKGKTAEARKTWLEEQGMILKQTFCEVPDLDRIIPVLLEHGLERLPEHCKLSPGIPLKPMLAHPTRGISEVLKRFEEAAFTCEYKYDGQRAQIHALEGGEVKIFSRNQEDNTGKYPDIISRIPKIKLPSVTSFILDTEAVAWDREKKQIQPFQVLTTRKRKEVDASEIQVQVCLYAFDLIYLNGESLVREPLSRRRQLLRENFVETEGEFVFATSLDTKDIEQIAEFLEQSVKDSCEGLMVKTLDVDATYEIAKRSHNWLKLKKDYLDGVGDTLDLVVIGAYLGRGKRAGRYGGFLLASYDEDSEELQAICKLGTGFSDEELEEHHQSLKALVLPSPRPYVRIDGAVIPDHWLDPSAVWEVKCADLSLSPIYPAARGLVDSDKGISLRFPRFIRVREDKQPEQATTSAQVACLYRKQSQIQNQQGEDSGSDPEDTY
Method: (§3) The compounds of the present invention were analysed for inhibition of end joining with purified Ligase I (FIG. 3A) and Ligase III/XRCC1 (FIG. 3F). The compounds were incubated with either purified Ligase I (FIG. 3B-E) or with Ligase III/XRCC1 (FIGS. 3G-J) in suitable NHEJ buffer at 25° C. for 30 min, followed by addition of radiolabeled DNA, and further incubation for 1 h at 25° C. Products were purified using phenol: chloroform, and run on denaturing PAGE.
(§4) Effects of these compounds on NHEJ and Ligase IV mediated joining were evaluated (FIG. 4A-K). The reactions were terminated by EDTA (10 mM), products were purified using phenol/chloroform, precipitated with chilled ethanol and glycogen, and resolved on 8% denaturing PAGE. The gel was dried, exposed, and signal was detected using phosphor Imager FLA9000 (Fuji, Japan), and quantified in MultiGauge software expressed as Photo Stimulated Luminescence Units (PSLU). Inhibition of end joining was reported at 200 μM and 100 μM, respectively for SCR116 and SCR132 (FIGS. 4A, B, C and D), with >50% inhibition at 200 and 100 μM concentrations, respectively. […] FIG. 4K depict the purification profile of Ligase IV and XRCC4. […]

Ligase III/XRCC1 = target: T2, Ligase III/XRCC1 (Homo sapiens, UniProt P49916); test: Inhibition of end joining by purified Ligase III/XRCC1; type: biochemical; conditions: 50, 100, 200, 500, 1000 μM
T2 construct: made in house
T2 sequence (P49916 43-1009): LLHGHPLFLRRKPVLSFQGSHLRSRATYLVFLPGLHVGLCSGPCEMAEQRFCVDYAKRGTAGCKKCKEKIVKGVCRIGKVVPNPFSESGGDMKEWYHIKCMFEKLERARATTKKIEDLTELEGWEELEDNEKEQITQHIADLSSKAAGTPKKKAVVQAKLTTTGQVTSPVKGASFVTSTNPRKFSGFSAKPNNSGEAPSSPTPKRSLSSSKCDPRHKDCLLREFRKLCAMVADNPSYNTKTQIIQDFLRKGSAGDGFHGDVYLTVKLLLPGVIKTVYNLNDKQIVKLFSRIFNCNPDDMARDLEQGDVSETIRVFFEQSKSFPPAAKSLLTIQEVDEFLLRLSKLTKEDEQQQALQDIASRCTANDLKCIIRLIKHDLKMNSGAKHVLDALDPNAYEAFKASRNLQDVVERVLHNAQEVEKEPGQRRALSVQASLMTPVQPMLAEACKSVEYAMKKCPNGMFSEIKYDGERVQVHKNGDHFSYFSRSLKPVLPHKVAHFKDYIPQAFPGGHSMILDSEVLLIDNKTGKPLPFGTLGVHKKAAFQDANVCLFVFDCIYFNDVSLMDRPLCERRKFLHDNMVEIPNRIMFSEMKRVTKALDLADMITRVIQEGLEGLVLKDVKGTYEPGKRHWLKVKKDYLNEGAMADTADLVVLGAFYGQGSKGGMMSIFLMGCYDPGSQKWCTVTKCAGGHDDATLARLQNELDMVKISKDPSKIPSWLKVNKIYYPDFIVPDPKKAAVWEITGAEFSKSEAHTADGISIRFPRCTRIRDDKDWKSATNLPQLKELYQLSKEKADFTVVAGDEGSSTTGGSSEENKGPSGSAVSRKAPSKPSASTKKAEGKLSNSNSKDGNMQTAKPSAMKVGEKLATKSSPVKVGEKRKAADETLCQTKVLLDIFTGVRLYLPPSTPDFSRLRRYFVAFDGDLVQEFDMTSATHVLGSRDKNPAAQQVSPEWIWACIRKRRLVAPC
T2 sequence (P18887 whole entry partner): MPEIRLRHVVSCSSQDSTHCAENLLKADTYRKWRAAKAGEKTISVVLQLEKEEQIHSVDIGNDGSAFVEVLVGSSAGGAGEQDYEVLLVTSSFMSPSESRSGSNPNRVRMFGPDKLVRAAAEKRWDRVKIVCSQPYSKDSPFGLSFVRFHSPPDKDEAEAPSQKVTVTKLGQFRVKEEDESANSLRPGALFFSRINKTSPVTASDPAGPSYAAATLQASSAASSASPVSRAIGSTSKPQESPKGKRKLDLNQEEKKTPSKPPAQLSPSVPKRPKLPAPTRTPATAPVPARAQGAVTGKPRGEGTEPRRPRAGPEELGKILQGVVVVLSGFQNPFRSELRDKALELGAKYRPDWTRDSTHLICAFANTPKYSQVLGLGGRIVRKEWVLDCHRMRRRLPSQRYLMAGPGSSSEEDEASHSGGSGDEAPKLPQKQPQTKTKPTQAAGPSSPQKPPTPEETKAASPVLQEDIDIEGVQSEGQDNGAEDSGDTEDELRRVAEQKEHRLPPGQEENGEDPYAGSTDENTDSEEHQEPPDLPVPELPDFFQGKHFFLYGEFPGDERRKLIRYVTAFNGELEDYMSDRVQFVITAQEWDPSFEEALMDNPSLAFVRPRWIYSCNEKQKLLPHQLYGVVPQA
Method: as §3, §4

[2] = Homo sapiens, REH, Table 2, read-out: IC50 in cancer cell lines, Reh

## Nc1nc(S)nc(O)c1/N=C/c1ccc([N+](=O)[O-])s1 [Compound 16, (E)-6-amino-2-mercapto-5-(((5-nitrothiophen-2-yl)methylene)amino)pyrimidin-4-ol]
Reh
  Fold difference of IC50 in Reh to that of SCR7: > 100 fold
Reh; [2]
  IC50: 2.3 µM
Reh; Table 2, listed as SCR116, read-out: IC50 in cancer cell lines, Reh
  IC50: 2.34 µM
[1]
  Tumor burden: reduced tumor burden
[1]; selected oral dose 10 mg/kg
  Tumor size: significant reduction in tumor size
Molt4
  IC50: 4.89 µM
EAC
  IC50: 16.5 µM
Cancer cells
  Cytotoxicity in combination: Increased cytotoxicity
SCC084 derived xenograft
  Tumor volume: significant reduction in tumor volume
53BP1 foci in HeLa cells
  DNA damage marker 53BP1: increase in DNA damage marker 53BP1
LN229
  IC50: 5.6 µM
Ligase I
  Inhibition of end joining with Ligase I: no inhibition
Ligase III/XRCC1
  Inhibition of end joining with Ligase III/XRCC1: inhibited end joining at highest concentrations of 500 and 1000 μM

## Nc1nc(S)nc(O)c1/N=C/c1sc(Cl)nc1Cl [Compound 32, (E)-6-amino-5-(((2,4-dichlorothiazol-5-yl)methylene)amino)-2-mercaptopyrimidin-4-ol]
Reh
  Fold difference of IC50 in Reh to that of SCR7: > 250 fold
Reh; [2]
  IC50: 0.69 µM
Reh; Homo sapiens, REH, read-out: IC50 in Reh cells
  IC50: 0.69 µM
[1]
  Tumor burden: reduced tumor burden
[1]; selected oral dose 15 mg/kg
  Tumor size: significant reduction in tumor size
Molt4
  IC50: 1.88 µM
EAC
  IC50: 14.8 µM
Cancer cells
  Cytotoxicity in combination: Increased cytotoxicity
SCC084 derived xenograft
  Tumor volume: significant reduction in tumor volume
53BP1 foci in HeLa cells
  DNA damage marker 53BP1: increase in DNA damage marker 53BP1
LN229
  IC50: 7.7 µM
Ligase I
  Inhibition of end joining with Ligase I: no inhibition
Ligase III/XRCC1
  Inhibition of end joining with Ligase III/XRCC1: no significant inhibition
